Assays:
Rattus norvegicus [1] = assay: Antiinflammatory activity in Long Evans rat assessed as reduction of carrageenan-induced pedal edema at 40 mg/kg, po administered 1 hr prior to carrageenan challenge measured after 3 hrs relative to control; format: functional; parameters: scale not given: the % may be the effect or the level left
[2] = Toxicity in mouse assessed as overt effects; format: organism-based; details: in vivo
Rattus norvegicus [3] = assay: Antiinflammatory activity in Long Evans rat assessed as reduction of carrageenan-induced pedal edema at 50 mg/kg, po administered 1 hr prior to carrageenan challenge measured after 3 hrs relative to control; format: functional; parameters: scale not given: the % may be the effect or the level left
Rattus norvegicus [4] = assay: Antiinflammatory activity in Long Evans rat assessed as reduction of carrageenan-induced pedal edema at 200 mg/kg, po administered 1 hr prior to carrageenan challenge measured after 3 hrs relative to control; format: functional; parameters: scale not given: the % may be the effect or the level left
Rattus norvegicus [5] = assay: Antiinflammatory activity in Long Evans rat assessed as reduction of carrageenan-induced pedal edema at 100 mg/kg, po administered 1 hr prior to carrageenan challenge measured after 3 hrs relative to control; format: functional; parameters: scale not given: the % may be the effect or the level left
Rattus norvegicus [6] = assay: Antiinflammatory activity in Long Evans rat assessed as reduction of carrageenan-induced pedal edema at 150 mg/kg, po administered 1 hr prior to carrageenan challenge measured after 3 hrs relative to control; format: functional; parameters: scale not given: the % may be the effect or the level left
Rattus norvegicus [7] = assay: Antiinflammatory activity in Long Evans rat assessed as reduction of carrageenan-induced pedal edema at 15 mg/kg, po administered 1 hr prior to carrageenan challenge measured after 3 hrs relative to control; format: functional; parameters: scale not given: the % may be the effect or the level left

Structure (SMILES) | LD50 [2] [mg/kg] | Activity (Rattus norvegicus [4]) [%] | other results
Cc1ccc(Nc2c(C#N)c(Cl)c(C#N)c(Cl)c2C#N)c(C)c1 | 56 |  | Activity (Rattus norvegicus [1]): 13%
CC(C)CCC(=O)Oc1c(Cl)c(Cl)c(C#N)c(Cl)c1C#N | 56 |  | Activity (Rattus norvegicus [3]): 0%
N#Cc1c(Cl)c(Cl)c(OC(=O)c2ccc(Cl)c(Cl)c2)c(Cl)c1Cl | > 300 | 3 | 
CCCCCC(=O)Oc1c(Cl)c(Cl)c(C#N)c(Cl)c1Cl | > 300 | 0 | 
CCCCC(CC)C(=O)Oc1c(Cl)c(Cl)c(C#N)c(Cl)c1Cl (stereo unspecified) | > 300 | 15 | 
CNC(=O)Oc1c(Cl)c(Cl)c(C#N)c(Cl)c1C#N | 178 |  | Activity (Rattus norvegicus [5]): 20%
CCCC(=O)Oc1c(Cl)c(Cl)c(C#N)c(Cl)c1C#N | 178 |  | Activity (Rattus norvegicus [6]): 14%
CNc1c(C#N)c(Cl)c(C#N)c(NC)c1C#N | 300 | 20 | 
CC(C)S(=O)(=O)c1c(Cl)c(Cl)c(C#N)c(Cl)c1Cl | > 300 | 11 | 
CCC(CC)C(=O)Oc1c(Cl)c(Cl)c(C#N)c(Cl)c1Cl | > 300 | 11 | 
CC(=O)Oc1c(Cl)c(Cl)c(C#N)c(Cl)c1C#N | 237 | 25 | 
N#Cc1cc(Cl)c(C#N)cc1Cl | > 300 | 22 | 
Cc1cccc(C#N)c1 | > 300 | 20 | 
CCCC(=O)Oc1c(Cl)c(Cl)c(C#N)c(Cl)c1Cl | > 300 | 15 | 
CCCCCCCC(=O)Oc1c(Cl)c(Cl)c(C#N)c(Cl)c1Cl | > 300 | 0 | 
COc1c(Cl)c(Cl)c(C#N)c(Cl)c1C#N | 178 |  | Activity (Rattus norvegicus [5]): 0%
CCCCCCCC(=O)Oc1c(Cl)c(Cl)c(C#N)c(Cl)c1C#N | 178 |  | Activity (Rattus norvegicus [6]): 22%
CCCCS(=O)(=O)c1c(Cl)c(Cl)c(C#N)c(Cl)c1Cl | 237 | 12 | 
COc1ccc(Nc2c(C#N)c(Cl)c(C#N)c(Cl)c2C#N)cc1OC | 178 |  | Activity (Rattus norvegicus [6]): 13%
N#Cc1ccccc1Cl | > 300 | 26 | 
CCCCCCNc1c(F)c(C#N)c(F)c(F)c1C#N | > 300 | 11 | 
CCCCNc1c(F)c(C#N)c(F)c(F)c1C#N | > 300 | 14 | 
N#Cc1c(Cl)c(Cl)c(S(=O)(=O)CCCl)c(Cl)c1Cl | > 300 | 0 | 

Structure (SMILES) | LD50 [2] [mg/kg] | Activity (Rattus norvegicus [4]) [%] | other results
CC(C)Nc1c(C#N)c(Cl)c(C#N)c(NC(C)C)c1C#N | 300 | 5 | 
N#Cc1ccc(C#N)c(Cl)c1 | > 300 | 46 | 
CCCN(CCC)c1c(F)c(C#N)c(F)c(F)c1C#N | > 300 | 22 | 
N#Cc1c(Cl)c(C#N)c(Nc2cccc(C(F)(F)F)c2)c(C#N)c1Cl | 237 | 29 | 
CCOCCS(=O)(=O)c1c(Cl)c(Cl)c(C#N)c(Cl)c1Cl | 237 | 23 | 
C=CCNc1c(Cl)c(Cl)c(C#N)c(Cl)c1C#N | > 300 | 17 | 
CNc1c(F)c(C#N)c(F)c(F)c1C#N | 56 |  | Activity (Rattus norvegicus [1]): 17%
N#Cc1cc(F)c(C#N)cc1F | 56 | 32 | 
CC(C)C(=O)Oc1c(Cl)c(Cl)c(C#N)c(Cl)c1C#N | 237 | 0 | 
CCCCC(CC)C(=O)Oc1c(Cl)c(Cl)c(C#N)c(Cl)c1C#N (stereo unspecified) | > 300 | 20 | 
N#Cc1c(Cl)c(Cl)c(OC(=O)c2ccccc2Cl)c(Cl)c1Cl | > 300 | 0 | 
N#Cc1c(F)c(F)c(C#N)c(F)c1F | 56 |  | Activity (Rattus norvegicus [3]): 54%
N#Cc1c(Cl)c(C#N)c(Nc2ccc(N)cc2)c(C#N)c1Cl | 133 |  | Activity (Rattus norvegicus [5]): 14%
N#Cc1c(Cl)c(Cl)c(S(=O)(=O)CCCCCl)c(Cl)c1Cl | > 300 | 15 | 
N#Cc1ccc(C#N)cc1 | > 300 | 27 | 
N#Cc1c(O)c(Cl)c(Cl)c(C#N)c1Cl | 178 |  | Activity (Rattus norvegicus [6]): 28%
N#Cc1ccccc1Br | > 300 | 19 | 
CC(C)C(=O)Oc1c(Cl)c(Cl)c(C#N)c(Cl)c1Cl | > 300 | 0 | 
N#Cc1c(Cl)c(Cl)c(OC(=O)c2ccccc2)c(C#N)c1Cl | > 300 | 11 | 
N#Cc1cc(C#N)cc(C#N)c1 | 300 | 32 | 
CCNc1c(C#N)c(Cl)c(C#N)c(NCC)c1C#N | 300 | 11 | 
CCCCOc1c(Cl)c(Cl)c(C#N)c(Cl)c1C#N | 178 |  | Activity (Rattus norvegicus [5]): 8%
N#Cc1ccc(Cl)cc1 | > 300 | 30 | 

Structure (SMILES) | LD50 [2] [mg/kg] | Activity (Rattus norvegicus [4]) [%] | other results
N#Cc1cccc(C#N)c1Cl | 300 | 20 | 
N#Cc1c(Cl)c(C#N)c(Nc2ccc(Cl)cc2)c(C#N)c1Cl | 178 |  | Activity (Rattus norvegicus [6]): 1%
N#Cc1cc(C#N)c(F)cc1F | 56 |  | Activity (Rattus norvegicus [3]): 59%
Cc1cccc(Nc2c(C#N)c(Cl)c(C#N)c(Cl)c2C#N)c1C | 75 |  | Activity (Rattus norvegicus [3]): 22%
N#Cc1c(Cl)c(C#N)c(Nc2ccc(F)cc2F)c(C#N)c1Cl | 56 |  | Activity (Rattus norvegicus [1]): 12%
N#Cc1c(Cl)c(Cl)c(OC(=O)C(Cl)(Cl)Cl)c(Cl)c1Cl | > 300 | 17 | 
CCC(=O)Oc1c(Cl)c(Cl)c(C#N)c(Cl)c1C#N | 178 | 11 | 
CCCCCS(=O)(=O)c1c(Cl)c(Cl)c(C#N)c(Cl)c1Cl | 237 | 5 | 
Cc1c(C#N)c(C)c(C#N)c(C)c1C#N | 40 |  | Activity (Rattus norvegicus [3]): 57%
CNc1c(Cl)c(Cl)c(C#N)c(Cl)c1C#N | > 300 | 22 | 
CCCOc1c(Cl)c(Cl)c(C#N)c(Cl)c1C#N | 178 |  | Activity (Rattus norvegicus [5]): 8%
Cc1ccc(C#N)cc1C | > 300 | 25 | 
N#Cc1c(Cl)c(C#N)c(Nc2cccc(F)c2)c(C#N)c1Cl | 56 |  | Activity (Rattus norvegicus [1]): 0%
N#Cc1ccc(F)c(C#N)c1 | 178 |  | Activity (Rattus norvegicus [6]): 25%
CCCCNc1c(Cl)c(Cl)c(C#N)c(Cl)c1C#N | > 300 | 17 | 
CCCCC(CC)CNc1c(Cl)c(Cl)c(C#N)c(Cl)c1C#N (stereo unspecified) | > 300 | 0 | 
N#Cc1ccc(C#N)c(F)c1 | > 300 | 49 | 
N#CCCS(=O)(=O)c1c(Cl)c(Cl)c(C#N)c(Cl)c1Cl | 56 |  | Activity (Rattus norvegicus [1]): 5%
N#Cc1ccc(Br)cc1 | 237 |  | Activity (Rattus norvegicus [6]): 75%
N#Cc1c(Cl)c(Cl)c(C#N)c(Cl)c1Cl | > 300 | 13 | 
CCC(=O)Oc1c(Cl)c(Cl)c(C#N)c(Cl)c1Cl | > 300 | 0 | 
CCCCCCS(=O)(=O)c1c(Cl)c(Cl)c(C#N)c(Cl)c1Cl | 178 |  | Activity (Rattus norvegicus [6]): 2%
CCCCCCCCCCCC(=O)Oc1c(Cl)c(Cl)c(C#N)c(Cl)c1Cl | > 300 | 11 | 

Structure (SMILES) | LD50 [2] [mg/kg] | Activity (Rattus norvegicus [4]) [%] | other results
N#Cc1c(Cl)c(C#N)c(Nc2cccc(Cl)c2)c(C#N)c1Cl | 178 |  | Activity (Rattus norvegicus [1]): 0%
CCCCCC(=O)Oc1c(Cl)c(Cl)c(C#N)c(Cl)c1C#N | > 300 | 11 | 
N#Cc1ccc(F)cc1 | > 300 | 17 | 
N#Cc1cc(C#N)c(Cl)cc1Cl | 178 |  | Activity (Rattus norvegicus [6]): 5%
N#Cc1cc(Cl)c(C#N)cc1F | > 300 | 22 | 
N#Cc1c(Cl)c(Cl)c(OC(=O)Cc2ccccc2)c(Cl)c1Cl | > 300 | 0 | 
N#Cc1c(F)c(F)c(C#N)c(Nc2ccc(O)cc2)c1F | > 300 | 10 | 
N#Cc1c(Cl)c(Cl)c(S(=O)(=O)CCCc2ccccc2)c(Cl)c1Cl | 300 | 18 | 
N#Cc1c(Cl)c(C#N)c(Nc2ccccc2O)c(C#N)c1Cl | 24 |  | Activity (Rattus norvegicus [7]): 17%
CCN(CC)c1c(F)c(C#N)c(F)c(F)c1C#N | > 300 | 0 | 
CCCCC1C(=O)N(c2ccccc2)N(c2ccccc2)C1=O [PHENYLBUTAZONE] | > 300 |  | Activity (Rattus norvegicus [5]): 43.8%
CCCCC(=O)Oc1c(Cl)c(Cl)c(C#N)c(Cl)c1Cl | > 300 | 2 | 
N#Cc1c(F)c(F)c(C#N)c(Cl)c1F | 40 |  | Activity (Rattus norvegicus [1]): 86%
CCNc1c(F)c(C#N)c(F)c(F)c1C#N | 237 | 19 | 
N#Cc1cccc(C#N)c1 | 178 | 35 | 
CCCCNC(=O)Oc1c(Cl)c(Cl)c(C#N)c(Cl)c1C#N | 178 |  | Activity (Rattus norvegicus [5]): 3%
N#Cc1c(Cl)c(C#N)c(Nc2ccc(Br)cc2)c(C#N)c1Cl | 300 | 14 | 
CCCCCCCCCCS(=O)(=O)c1c(Cl)c(Cl)c(C#N)c(Cl)c1Cl | > 300 | 0 | 
N#Cc1ccc(Br)c(C#N)c1 | 178 |  | Activity (Rattus norvegicus [5]): 3%
N#Cc1c(N)c(Cl)c(Cl)c(C#N)c1Cl | > 300 | 25 | 
N#Cc1c(Cl)cc(Cl)c(C#N)c1Cl | 100 | 8 | 
N#Cc1c(Cl)c(C#N)c(Nc2ccc(Cl)c(Cl)c2)c(C#N)c1Cl | 56 |  | 
